For test [1], the system named is MCA205 cells. Put plainly: Cell death induction for vaccination, FACS analysis of Annexin V+ DAPI+ cells. Particulars: MCA205, 1 μM mitoxantrone, 24 hours. Type of test: cell-based, mouse. Here is the method: Anti cancer vaccination was assessed using a previously described setting (Casares et al., 2005; Obeid et al., 2007). CT26 cells were cultured with either PBS or 20 μM doxorubicin, and MCA205 with either PBS or 1 μM mitoxantrone for 24 h. All these treatments led to ˜50% of Annexin V^+ DAPI^+ cells, as assessed by FACS analysis at 24 hours. After careful washes, cells were resuspended in sterile PBS. CT26 cells were incubated in the presence or in the absence of antimycin A and deoxyglucose (2 μg/ml and 30 mM, respectively) for 20 min, or in the presence or in the absence of Oxi-ATP ([…]). After 3 washes, 3×10^6 dying CT26 cells (or 3×10^5 MCA205 cells) were injected subcutaneously into the left flank of mice. In some experiments, 100 μg of IL-1Ra (Anakinra) was injected along with the dying cells. Seven days later, mice were rechallenged into the right flank with 5×10^5 live CT26 cells (or, alternatively, 3.10^4 live MCA205 cells). Tumor growth was then monitored weekly.
Background: In flow cytometry, cells or beads pass a laser one at a time.

In test [2] the test system is EL4 thymoma tumors. Put plainly: Chemotherapy of EL4 tumors established in mice. It counts as in vivo. Here is the method: FIG. 17. The anti-cancer activity of oxaliplatin depends on P2X7 and the NALP3 inflammasome. FIG. 17a,b,c. Therapeutic efficacy of oxaliplatin on established tumors depends on the integrity of the immune system on the P2X7/NALP3/casp-1 axis. EL4 thymoma tumors were established in syngenic mice bearing the indicated genotypes (a-c) or injected with anti-CD8 antibody (a). When the tumor reached 70-90mm^2 in size, mice were either left untreated or were treated with oxaliplatin. Each treatment group included 5-6 mice (X±SEM), and each experiment was repeated three times with similar results. * p<0.05. d. Caspase 1 is required for the immune response promoted by oxaliplatin chemotherapy. EG7 tumors established in the thigh were treated with one systemic injection of oxaliplatin. Inguinal lymph node cells were harvested 5 days later, and the gangliocytes were restimulated in vitro. IFNγ secretion was assessed by ELISA. Results (means of triplicates ±SEM, n=3) are representative of one typical experiment out of three. ^*P<0.01. FIG. 17d. The efficacy of anthracyclines against established colon cancer is dependent on IL-1β. CT26 tumors established for 10 days in WT mice were treated with one local injection of doxorubicin in the absence or presence of neutralizing anti-IL-1β Ab (n=10/group, *p<0.05). FIG. 17e. A single-nucleotide polymorphism (SNP) in P2X7 (rs3751143) affects the long-term efficacy of conventional anti-cancer therapy in breast cancer patients. Comparative Kaplan-Meier estimates of time to metastasis in two groups of patients bearing the normal (Glu496Glu) or loss-of-function (Glu496Ala) P2X7 alleles. The time to metastatic progression was analyzed in 225 women with non-metastatic breast cancer who received adjuvant chemotherapy with anthracylines.
Wild type or loss-of-function C57BL/6 mice were injected s.c. with 10^6 EL4 cells into the right flank. Alternatively, wild-type BALB/c mice were injected with 5.10^5 CT26 cells into the right flank. Mice were then randomly assigned to treatment groups of 4-6 mice each. The tumor surface was monitored using a caliper. When tumor size reached 70-90 mm^2 for EL4 (9-12 days post-injection) or 60-80 mm^2 for CT26 (8-10 days post-injection), mice received chemotherapy (Apetoh et al., 2007). Mice bearing EL4 tumors were injected with oxaliplatin (5 mg/kg i.p), while mice bearing CT26 tumors were injected with doxorubicin (50 μl, 4 mM i.t). In some experiments, CT26 tumor-bearing mice received two injections (on day 0 and day 2 after the commencement of chemotherapeutic treatment) of IL-1Ra (McIntyre et al., 1991) (100 μg), anti-IL-1 antibody (100 μg) or hamster serum as a control.

Test [3] has as its system EG7 cells. Put plainly: ATP assays (extracellular and intracellular ATP, luciferin-luciferase) on oxaliplatin-treated tumor cells. It counts as cell-based, mouse. Here is the method:
FIG. 1: ATP release by dying tumor cells dictates the immunogenicity of cell death. FIG. 1a. Accumulation of ATP in the extracellular space following exposure of tumor cells to chemotherapy. EG7 were treated with oxaliplatin, and ATP release into the supernatant was monitored. FIG. 1b. […] EG7 were treated with oxaliplatin for 24 hours and subsequently with antimycin A and deoxyglucose (A/D) for 20 min. Data (means±SEM of triplicates) of one representative experiment out of three are depicted. FIG. 1c. Failure of dying tumor cells depleted from ATP to elicit an OVA specific immune response. Live or oxaliplatin-treated EG7 cells were injected into the footpad of C57B1/6 mice. Five days later, popliteal lymph node cells were recovered and restimulated with the OVA holoprotein for 72 hours before quantification of IFNγ secretion. The levels of IFNγ secretion between mice immunized with ATP-depleted or not depleted EG7 were compared in three independent experiments. FIG. 1d. Inhibition of purinergic receptors with oxidized ATP (oxiATP) abolishes T cell priming by oxaliplatin-treated EG7 cells. […] Five days later, the local immune response was measured as in (a). […]
Plates were read in a Fluostar luminometer (BMG Labtech).

Test [4] concerns OT-1 CD8+ T cells. The test is described as follows: In vitro stimulation of OT-1 cells by BM-DC loaded with oxaliplatin-treated EG7. Type of test: cell-based, mouse. The note with it: rIL-1β 100 ng/ml or IL-12 10 ng/ml added to cocultures. Here is the method: FIG. 15. IL-1β-dependent CTL priming by dying tumor cells in vitro and in vivo. FIG. 15a. MyD88 is required at the level of the host but not that of the APC. DC from WT mice were first loaded with antigen (OVA holoprotein with C/P adjuvant, live or oxaliplatin-treated EG7 cells) and then injected into the footpad of into WT or MyD88^−/− recipients (n=6 mice/group). Five days later, the local immune response was measured as in FIG. 2d,e. Results of one typical experiment out of three are depicted. FIG. 15b. Casp-1 and IL-1β-dependent OT-I priming in vitro. The differentiation of IFNγ producing CD8^+ OT-1 cells was induced by incubating naïve OVA-specific TCR transgenic OT-1 lymphocytes with syngeneic BM-DC (derived from WT or Casp-1^−/− mice) that were loaded with oxaliplatin-treated EG7 for 2 days in vitro. […] Exogenous addition of rIL-1β (100 ng/ml) or IL-12 (10 ng/ml) to cocultures of Casp-1^−/− DC loaded with dying tumor cells and incubated with OT1 restored T cell priming. […] FIG. 15c. Specific and direct polarizing effects of IL-1β on T lymphocytes in vitro. Purified CD3^+ CD8^+ T cells derived from naïve WT mice were stimulated with anti-CD3 and anti-CD28 mAb for 5 days in the presence of the indicated cytokines (10 ng/ml for IL-12p70, 100 ng/ml for IL-1β, IL-6 and TNFα) -and IFNγ production was measured as in FIG. 3b. FIG. 15d. […]

The test system of test [5] is T cell priming for IFNγ production. The test is described as follows: Priming assay: dying EG7 cells injected into the footpad, IFNγ secretion of restimulated popliteal lymph node cells. Type of test: in vivo, mice. Particulars: cytokine co-injected with oxaliplatin-treated EG7: rIL-1β 250 ng, rIL-12 50 ng, rIL-6 250 ng per footpad. The procedure:
1.10^6 CT26, EG7, or B16F10 cells were either left untreated or treated with doxorubicin (20 μM) or oxaliplatin (5 μg/ml) for 24 h. Cells were then injected into the footpad of syngenic mice. In some experiments, 20 or 100 μg of IL-1Ra (Anakinra) or 250 ng of recombinant murine IL-1β (or 250 ng of IL-6 or 50 ng of IL-12) was injected along with dying tumor cells into the footpad of mice. Alternatively, DC were cocultured with EG7 cells for 2 hours, followed by the purification of CD11c^+ cells with anti-CD11c mAb coupled to magnetic beads (Miltenyi Biotec, Paris, France) and injection of these purified DC into the footpad. Five days later, gangliocytes from popliteal lymph nodes were harvested, seeded in 96 U-well plates (3.10^5 cells per well), and restimulated with 1 mg/ml OVA protein. Restimulation with MCA205 or CT26 cells was performed using 3×10^4 tumor cells killed by 5 min heating at 42° C. followed by 1 cycle of freezing/thawing in liquid nitrogen. For B16F10, restimulation was achieved using gp100 peptide as previously described (Overwijk et al., 1998). As a positive control of T cell priming, mice were injected with OVA protein (1 mg) (or gp100 for B16F10) and the association of CpG (10 μg) and Poly I:C (5 μg). For CT26 priming experiments, cell lysate plus LPS (250 ng) was used as a positive control. Supernatants were harvested 72 hours later, and IFNγ secretion was assessed by ELISA. Alternatively, cells were stimulated with PMA (10 ng/ml) and ionomycin (1 μg/ml) for 1 h, followed by the addition of brefeldin A (10 μg/ml for 6 h at 37° C.) (Apetoh et al., 2007), surface staining with Abs specific for CD3, CD4 or CD8, fixation and permeabilization (Cytofix/cytoperm kit) and then labeled with antibodies specific for IFNγ. Immunofluorescence was analyzed on a LSRII flow cytometer (BD Biosciences) with FACSDiva software.

On to `O=C1c2c(O)ccc(O)c2C(=O)c2c(NCCNCCO)ccc(NCCNCCO)c21` [mitoxantrone], for which the “Annexin V+ DAPI+ cells” value in test [1] is about 50%.

Take `O=C1[O][Pt]2([NH][C@@H]3CCCC[C@H]3[NH]2)[O]C1=O` [oxaliplatin]: the “response of EL4 tumors to oxaliplatin” value in test [2] (Casp1−/− mice versus WT controls), in test [2] (Nalp3−/− mice versus WT controls) and in test [2] (P2X7−/− mice versus WT controls) was “responded less efficiently” each time. For the same molecule, the “therapeutic efficacy on established EL4 tumors” value in test [2] (IfnγR1−/− mice) is reported as “lost its therapeutic efficacy”; in test [2] (Il-12Rβ2−/− mice (and WT)), “remained efficient”; in test [2] (T and B cell-deficient rag-2−/− mice), “lost its therapeutic efficacy”; in test [2] (T cell-deficient nu/nu mice) it was “lost its therapeutic efficacy”; in test [2] (mice depleted from CD8+ T cells), “lost its therapeutic efficacy”. The “control of EL4 tumor growth” value in test [2] (immunocompetent WT mice, oxaliplatin 5 mg/kg i.p.) is “efficient in controlling EL4 tumor growth”. For the same molecule, in test [3] (EG7 treated with oxaliplatin for 24 hours), the “intracellular ATP” value is recorded as “Decrease of intracellular ATP”. In test [3] (EL4 thymomas and EG7 cells, oxaliplatin 5 μg/ml, 0-24 hours), the “release of ATP into the supernatant” value is recorded as “induced the release of ATP”.

B1: IL-12: recombinant mouse IL-12 from R&D Systems (protein, UniProt P43431 23-215; P43432 23-335, looked up)
Interleukin-12 subunit alpha: RVIPVSGPARCLSQSRNLLKTTDDMVKTAREKLKHYSCTAEDIDHEDITRDQTSTLKTCLPLELHKNESCLATRETSSTTRGSCLPPQKTSLMMTLCLGSIYEDLKMYQTEFQAINAALQNHNHQQIILDKGMLVAIDELMQSLNHNGETLRQKPPVGEADPYRVKMKLCILLHAFSTRVVTINRVMGYLSSA
Interleukin-12 subunit beta: MWELEKDVYVVEVDWTPDAPGETVNLTCDTPEEDDITWTSDQRHGVIGSGKTLTITVKEFLDAGQYTCHKGGETLSHSHLLLHKKENGIWSTEILKNFKNKTFLKCEAPNYSGRFTCSWLVQRNMDLKFNIKSSSSSPDSRAVTCGMASLSAEKVTLDQRDYEKYSVSCQEDVTCPTAEETLPIELALEARQQNKYENYSTSFFIRDIIKPDPPKNLQMKPLKNSQVEVSWEYPDSWSTPHSYFSLKFFVRIQRKKEKMKETEEGCNQKGAFLVEKTSTEVQCKGGNVCVQAQDRYYNSSCSKWACVPCRVRS
B1: in test [4], the “priming capacity of Casp-1−/− DC for OT-1 cells (IFNγ)” value was “restored the priming capacity”. Moreover, in test [5], the “T cell priming in Nalp3−/− or Casp1−/− mice” value was “restored deficient T cell priming”.

Values taken from US20110229411A1, “USE OF P2X7 PATHWAY FOR ASSESSING THE SENSITIVITY OF A SUBJECT TO A CANCER TREATMENT” (INSTITUT GUSTAVE ROUSSY, priority 2008, published 2011).
